Data: PubChem BioAssay (NCI)
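Briefly, cells in 96-well plates were exposed to five compound concentrations for 48 h, and endpoints were estimated by linear interpolation. TGI: concentration producing complete growth inhibition.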

How the values were obtained:
Experiment in all cases: NCI-60 cell line screen, 48 h
M14 melanoma = test system: M14 melanoma
SF-268 CNS = test system: SF-268 CNS
MOLT-4 leukemia = test system: MOLT-4 leukemia
SNB-75 CNS = test system: SNB-75 CNS
A498 renal = test system: A498 renal
K-562 leukemia = test system: K-562 leukemia
UACC-62 melanoma = test system: UACC-62 melanoma
OVCAR-8 ovarian = test system: OVCAR-8 ovarian
SW-620 colon = test system: SW-620 colon
SR leukemia = test system: SR leukemia
OVCAR-3 ovarian = test system: OVCAR-3 ovarian

NC(=O)c1nnsc1NC=O
TGI (M14 melanoma): > 100 µM
TGI (SF-268 CNS): > 100 µM
TGI (MOLT-4 leukemia): > 100 µM
TGI (SNB-75 CNS): > 100 µM
TGI (A498 renal): > 100 µM
TGI (K-562 leukemia): > 100 µM
TGI (UACC-62 melanoma): > 100 µM
TGI (OVCAR-8 ovarian): > 100 µM
TGI (SW-620 colon): > 100 µM
TGI (SR leukemia): > 100 µM

CC1CCc2sc3[nH]c(=S)n(-c4ccccc4)c(=O)c3c2C1 (stereo not given)
TGI (M14 melanoma): > 100 µM
TGI (SF-268 CNS): > 100 µM
TGI (MOLT-4 leukemia): > 100 µM
TGI (SNB-75 CNS): 91 µM
TGI (OVCAR-3 ovarian): 85.3 µM
TGI (K-562 leukemia): > 100 µM
TGI (UACC-62 melanoma): > 100 µM
TGI (OVCAR-8 ovarian): > 100 µM
TGI (SW-620 colon): > 100 µM
TGI (SR leukemia): > 100 µM

CCN(CC)C(=O)N1CN(c2ccccc2)C2(CCN(CCCSc3ccc(F)cc3)CC2)C1=O
TGI (M14 melanoma): 15.3 µM
TGI (SF-268 CNS): 36.1 µM
TGI (MOLT-4 leukemia): 12.5 µM
TGI (SNB-75 CNS): 50.3 µM
TGI (OVCAR-3 ovarian): 18.6 µM
TGI (K-562 leukemia): 27.4 µM
TGI (OVCAR-8 ovarian): 54.4 µM
TGI (SW-620 colon): 43 µM
TGI (SR leukemia): 18 µM

CC(NC(=O)C(N)CC(=O)O)NC(=O)N(C)C(C)(C)C (stereo not given)
TGI (M14 melanoma): > 100 µM
TGI (SF-268 CNS): > 100 µM
TGI (MOLT-4 leukemia): > 100 µM
TGI (SNB-75 CNS): > 100 µM
TGI (OVCAR-3 ovarian): > 100 µM
TGI (K-562 leukemia): > 100 µM
TGI (UACC-62 melanoma): > 100 µM
TGI (OVCAR-8 ovarian): > 100 µM
TGI (SW-620 colon): > 100 µM
TGI (SR leukemia): > 100 µM

Cc1ccc(S(=O)(=O)NC(=O)NC(Cc2ccc(O)c(O)c2)C(=O)O)cc1 (stereo not given)
TGI (M14 melanoma): > 100 µM
TGI (SF-268 CNS): 2.8 µM
TGI (MOLT-4 leukemia): > 100 µM
TGI (OVCAR-3 ovarian): > 100 µM
TGI (A498 renal): > 100 µM
TGI (K-562 leukemia): > 100 µM
TGI (UACC-62 melanoma): > 100 µM
TGI (OVCAR-8 ovarian): > 100 µM
TGI (SW-620 colon): 61.9 µM

COC(=O)[C@H](Cc1ccccc1)NP(=O)(O)OCC1C=CC(n2cc(C)c(=O)[nH]c2=O)O1 (stereo not given in full)
TGI (M14 melanoma): > 100 µM
TGI (SF-268 CNS): > 100 µM
TGI (MOLT-4 leukemia): > 100 µM
TGI (SNB-75 CNS): > 100 µM
TGI (OVCAR-3 ovarian): > 100 µM
TGI (K-562 leukemia): > 100 µM
TGI (UACC-62 melanoma): > 100 µM
TGI (OVCAR-8 ovarian): > 100 µM
TGI (SW-620 colon): > 100 µM

COc1ccc(/C=N/NC(=O)c2cnc3[nH]c(=O)n(C)c(=O)c3c2)cc1
TGI (M14 melanoma): > 100 µM
TGI (SF-268 CNS): > 100 µM
TGI (MOLT-4 leukemia): > 100 µM
TGI (SNB-75 CNS): 38.6 µM
TGI (OVCAR-3 ovarian): > 100 µM
TGI (K-562 leukemia): > 100 µM
TGI (UACC-62 melanoma): > 100 µM
TGI (OVCAR-8 ovarian): > 100 µM
TGI (SW-620 colon): > 100 µM

CC[C@@]12C=CC(=S)N(CCSc3ccccc3)[C@@H]1c1c(n(S(=O)(=O)c3ccc(OC)cc3)c3ccccc13)CC2
TGI (M14 melanoma): > 100 µM
TGI (SF-268 CNS): > 100 µM
TGI (MOLT-4 leukemia): > 100 µM
TGI (SNB-75 CNS): > 100 µM
TGI (OVCAR-3 ovarian): > 100 µM
TGI (A498 renal): > 100 µM
TGI (K-562 leukemia): > 100 µM
TGI (UACC-62 melanoma): > 100 µM
TGI (OVCAR-8 ovarian): > 100 µM
TGI (SW-620 colon): > 100 µM

CC(C)C(=O)/C=C/c1ccc(Cl)c(Cl)c1
TGI (M14 melanoma): 31.9 µM
TGI (SF-268 CNS): 40.4 µM
TGI (MOLT-4 leukemia): > 100 µM
TGI (OVCAR-3 ovarian): 27.6 µM
TGI (A498 renal): 62.1 µM
TGI (K-562 leukemia): 72.2 µM
TGI (UACC-62 melanoma): 34.9 µM
TGI (OVCAR-8 ovarian): 45.8 µM
TGI (SW-620 colon): 36.3 µM
TGI (SR leukemia): 56.8 µM

CCN1CCC(O)(c2ccc(Oc3ccc(C)cc3)cc2)C(C(=O)c2ccc(Oc3ccc(C)cc3)cc2)C1 (stereo not given)
TGI (M14 melanoma): 30.6 µM
TGI (SF-268 CNS): 32.9 µM
TGI (MOLT-4 leukemia): 69.1 µM
TGI (SNB-75 CNS): 20.4 µM
TGI (OVCAR-3 ovarian): 36.9 µM
TGI (A498 renal): 6.39 µM
TGI (K-562 leukemia): > 100 µM
TGI (UACC-62 melanoma): 24.5 µM
TGI (OVCAR-8 ovarian): 28.2 µM
TGI (SW-620 colon): 27.7 µM

COc1ccc(-c2cc(-c3cc(F)c(Cl)cc3Cl)on2)cc1OC
TGI (M14 melanoma): > 100 µM
TGI (SF-268 CNS): > 100 µM
TGI (MOLT-4 leukemia): 49.5 µM
TGI (SNB-75 CNS): > 100 µM
TGI (OVCAR-3 ovarian): > 100 µM
TGI (K-562 leukemia): > 100 µM
TGI (OVCAR-8 ovarian): > 100 µM
TGI (SW-620 colon): > 100 µM
TGI (SR leukemia): 13.1 µM
